Data reported in ChEMBL document CHEMBL1765086, “Structural modifications of UMP, UDP, and UTP leading to subtype-selective agonists for P2Y2, P2Y4, and P2Y6 receptors” (J Med Chem, 2011).

Tests used:
[1] = target: T1, P2Y purinoceptor 4 (Homo sapiens, UniProt P51582); test: Agonist activity at human recombinant P2Y4 receptor expressed in human 1321N1 cells assessed as [3H]inositol phosphate intracellular accumulation by scintillation proximity assay; assay type: functional, cell-based
[2] = target: T2, P2Y purinoceptor 6 (Homo sapiens, UniProt Q15077); test: Agonist activity at human recombinant P2Y6 receptor expressed in human 1321N1 cells assessed as [3H]inositol phosphate intracellular accumulation by scintillation proximity assay; assay type: functional, cell-based
T2 sequence (Q15077 whole entry): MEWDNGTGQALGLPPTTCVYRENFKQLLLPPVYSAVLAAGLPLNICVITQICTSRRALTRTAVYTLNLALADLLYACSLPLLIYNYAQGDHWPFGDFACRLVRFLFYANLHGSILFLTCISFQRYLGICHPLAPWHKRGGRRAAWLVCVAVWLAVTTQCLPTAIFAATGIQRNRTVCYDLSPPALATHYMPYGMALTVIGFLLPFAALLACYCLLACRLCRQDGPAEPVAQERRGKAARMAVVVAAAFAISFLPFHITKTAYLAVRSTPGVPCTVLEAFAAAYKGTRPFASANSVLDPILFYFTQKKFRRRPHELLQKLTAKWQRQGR

[3] = target: T3, P2Y purinoceptor 2 (Homo sapiens, UniProt P41231); test: Ratio of compound EC50 to UDP EC50 for human recombinant P2Y2 receptor
T3 sequence (P41231 whole entry): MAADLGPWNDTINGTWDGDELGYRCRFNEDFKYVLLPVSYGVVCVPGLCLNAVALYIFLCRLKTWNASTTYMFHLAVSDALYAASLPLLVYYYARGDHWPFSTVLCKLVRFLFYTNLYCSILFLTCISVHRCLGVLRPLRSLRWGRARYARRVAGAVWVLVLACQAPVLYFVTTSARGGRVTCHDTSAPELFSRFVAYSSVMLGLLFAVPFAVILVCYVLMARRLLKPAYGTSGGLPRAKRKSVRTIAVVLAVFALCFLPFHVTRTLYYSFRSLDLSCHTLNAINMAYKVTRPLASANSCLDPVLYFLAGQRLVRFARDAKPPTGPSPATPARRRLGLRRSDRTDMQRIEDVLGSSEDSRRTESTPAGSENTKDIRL

[4] = target: T3, P2Y purinoceptor 2; test: Agonist activity at human recombinant P2Y2 receptor expressed in human 1321N1 cells assessed as [3H]inositol phosphate intracellular accumulation by scintillation proximity assay; assay type: functional, cell-based
[5] = target: T1, P2Y purinoceptor 4; test: Agonist activity at P2Y4 receptor; assay type: functional
[6] = species: Homo sapiens; test: Selectivity ratio of EC50 for human P2Y4 receptor to EC50 for human P2Y2 receptor
[7] = species: Homo sapiens; test: Selectivity ratio of EC50 for human P2Y6 receptor to EC50 for human P2Y2 receptor
[8] = species: Homo sapiens; test: Selectivity ratio of EC50 for human P2Y2 receptor to EC50 for human P2Y4 receptor
[9] = species: Homo sapiens; test: Selectivity ratio of EC50 for human P2Y6 receptor to EC50 for human P2Y4 receptor
[10] = species: Homo sapiens; test: Selectivity ratio of EC50 for human P2Y2 receptor to EC50 for human P2Y6 receptor
[11] = species: Homo sapiens; test: Selectivity ratio of EC50 for human P2Y4 receptor to EC50 for human P2Y6 receptor
[12] = target: T3, P2Y purinoceptor 2; test: Agonist activity at P2Y2 receptor; assay type: functional
[13] = target: T2, P2Y purinoceptor 6; test: Agonist activity at P2Y6 receptor; assay type: functional

T1 sequence (P51582 whole entry): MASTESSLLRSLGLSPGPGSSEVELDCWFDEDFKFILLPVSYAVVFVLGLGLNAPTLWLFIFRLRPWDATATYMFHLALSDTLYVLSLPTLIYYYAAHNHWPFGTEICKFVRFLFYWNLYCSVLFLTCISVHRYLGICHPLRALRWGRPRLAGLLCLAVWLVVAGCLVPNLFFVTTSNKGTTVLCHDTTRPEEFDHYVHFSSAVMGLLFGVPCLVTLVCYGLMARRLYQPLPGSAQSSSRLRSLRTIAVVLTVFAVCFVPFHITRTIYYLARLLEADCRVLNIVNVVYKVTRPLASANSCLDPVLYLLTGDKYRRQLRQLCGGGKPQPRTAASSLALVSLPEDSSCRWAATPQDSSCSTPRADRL

Structure (SMILES) | EC50 [1] [µM] | EC50 [2] [µM] | EC50 [4] [µM] | also measured
CSc1nc(=O)ccn1[C@@H]1O[C@H](COP(=O)(O)OP(=O)(O)O)[C@@H](O)[C@H]1O | 1.52 | 4.7 | 0.523 | Ratio EC50 [3]: 33
CSc1nc(=O)ccn1[C@@H]1O[C@H](COP(=O)(O)O)[C@@H](O)[C@H]1O | > 100 | > 100 | 2.9 | –
COc1nc(=O)ccn1[C@@H]1O[C@H](COP(=O)(O)OP(=O)(O)O)[C@@H](O)[C@H]1O | 4.49 | 1.37 | 0.907 | –
O=c1ccn([C@@H]2O[C@H](COP(=O)(O)OP(=O)(O)C(Cl)(Cl)P(=O)(O)O)[C@@H](O)[C@H]2O)c(=O)[nH]1 | ≥ 100 | 6.2 | 0.612 | –
O=c1[nH]c(=S)ccn1[C@@H]1O[C@H](COP(=O)(O)OP(=O)(O)OP(=O)(O)O)[C@@H](O)[C@H]1O | 0.023 | – | 0.026 | EC50 [5]: 0.023 µM
CNc1nc(=O)ccn1[C@@H]1O[C@H](COP(=O)(O)OP(=O)(O)O)[C@@H](O)[C@H]1O | ≥ 100 | > 100 | 7.6 | –
Nc1nc(=O)ccn1[C@@H]1O[C@H](COP(=O)(O)OP(=O)(O)O)[C@@H](O)[C@H]1O | ≥ 100 | ≥ 100 | 0.604 | Ratio EC50 [6]: > 100; Ratio EC50 [7]: > 100
O=c1ccn([C@@H]2O[C@H](COP(=O)(O)OP(=O)(O)O)[C@@H](O)[C@H]2O)c(SCc2ccccc2)n1 | 5.98 | 6.8 | 6.2 | –
O=c1ccn([C@@H]2O[C@H](COP(=O)(O)OP(=O)(O)C(F)(F)P(=O)(O)O)[C@@H](O)[C@H]2O)c(=O)[nH]1 | > 100 | 2.63 | 4.9 | Ratio EC50 [7]: 2
Nc1nc(=O)ccn1[C@@H]1O[C@H](COP(=O)(O)O)[C@@H](O)[C@H]1O | – | > 100 | > 100 | Ratio EC50 [6]: > 100; Ratio EC50 [7]: > 100; Ratio EC50 [8]: > 20; Ratio EC50 [9]: > 20
O=C(Cn1c(=O)ccn([C@@H]2O[C@H](COP(=O)(O)OP(=O)(O)C(F)(F)P(=O)(O)O)[C@@H](O)[C@H]2O)c1=O)c1ccccc1 | 3.93 | 1.46 | 1.2 | –
O=c1[nH]c(=S)ccn1[C@@H]1O[C@H](COP(=O)(O)OP(=O)(O)C(F)(F)P(=O)(O)O)[C@@H](O)[C@H]1O | 9.3 | 7 | 0.134 | Ratio EC50 [6]: > 60; Ratio EC50 [7]: > 60
COc1nc(=O)ccn1[C@@H]1O[C@H](COP(=O)(O)O)[C@@H](O)[C@H]1O | > 100 | 9.8 | 9.9 | –
O=c1ccn([C@@H]2O[C@H](COP(=O)(O)O)[C@@H](O)[C@H]2O)c(SCc2ccccc2)n1 | > 100 | > 100 | ≥ 100 | –
O=c1[nH]c(=S)ccn1[C@@H]1O[C@H](COP(=O)(O)OP(=O)(O)C(Cl)(Cl)P(=O)(O)O)[C@@H](O)[C@H]1O | 7.87 | 8.1 | 1.81 | –
O=c1ccn([C@@H]2O[C@H](COP(=O)(O)OP(=O)(O)O)[C@@H](O)[C@H]2O)c(SCCc2ccccc2)n1 | ≥ 100 | 2.5 | 0.544 | –
O=c1ccn([C@@H]2O[C@H](COP(=O)(O)OP(=O)(O)C(Cl)(Cl)P(=O)(O)O)[C@@H](O)[C@H]2O)c(=S)[nH]1 | 3.85 | 7.7 | 0.794 | –
CCSc1nc(=O)ccn1[C@@H]1O[C@H](COP(=O)(O)O)[C@@H](O)[C@H]1O | 4.33 | > 100 | 1.5 | –
O=C(Cn1c(=O)ccn([C@@H]2O[C@H](COP(=O)(O)OP(=O)(O)C(Cl)(Cl)P(=O)(O)O)[C@@H](O)[C@H]2O)c1=O)c1ccccc1 | 7.3 | 0.142 | 0.826 | Ratio EC50 [10]: 6; Ratio EC50 [11]: 50
CCCSc1nc(=O)ccn1[C@@H]1O[C@H](COP(=O)(O)OP(=O)(O)O)[C@@H](O)[C@H]1O | 4.9 | ≥ 100 | 1.2 | –
CCCSc1nc(=O)ccn1[C@@H]1O[C@H](COP(=O)(O)O)[C@@H](O)[C@H]1O | > 100 | 6.2 | 4.8 | –
O=c1[nH]c(=O)n([C@@H]2O[C@H](COP(=O)(O)OP(=O)(O)OP(=O)(O)Nc3ccccc3)[C@@H](O)[C@H]2O)cc1Br | > 100 | 6.1 | 1.8 | –
Nc1ccn([C@H]2C[C@H](O)[C@@H](COP(=O)(O)OP(=O)(O)OP(=O)(O)OP(=O)(O)OC[C@H]3O[C@@H](n4ccc(=O)[nH]c4=O)[C@H](O)[C@@H]3O)O2)c(=O)n1 [DENUFOSOL TETRASODIUM] | – | – | – | EC50 [12]: 0.2 µM; EC50 [5]: 0.8 µM; EC50 [13]: > 1 µM
O=c1ccn([C@@H]2O[C@H](COP(=O)(O)OP(=O)(O)OP(=O)(O)OP(=O)(O)OC[C@H]3O[C@@H](n4ccc(=O)[nH]c4=O)[C@H](O)[C@@H]3O)[C@@H](O)[C@H]2O)c(=O)[nH]1 [DIQUAFOSOL TETRASODIUM] | – | – | – | EC50 [5]: 0.4 µM; EC50 [13]: 2 µM
O=c1ccn([C@@H]2O[C@H](COP(=O)(O)O)[C@@H](O)[C@H]2O)c(SCCc2ccccc2)n1 | > 100 | > 100 | 1.3 | Ratio EC50 [6]: > 100; Ratio EC50 [7]: 100
CNc1nc(=O)ccn1[C@@H]1O[C@H](COP(=O)(O)O)[C@@H](O)[C@H]1O | > 100 | > 100 | > 100 | –
O=c1ccn([C@@H]2O[C@H](COP(=O)(O)OP(=O)(O)OP(=O)(O)O)[C@@H](O)[C@H]2O)c(=O)[nH]1 [URIDINE TRIPHOSPHATE] | 0.0884 | – | 0.0179 | –
O=c1[nH]c(=S)ccn1[C@@H]1O[C@H](COP(=O)(O)O)[C@@H](O)[C@H]1O | > 100 | > 100 | > 100 | –
O=c1ccn([C@@H]2O[C@H](COP(=O)(O)OP(=O)(O)O)[C@@H](O)[C@H]2O)c(=O)[nH]1 [URIDINE_DIPHOSPHATE] | 14 | 0.048 | 16.5 | –
